From patent publication US4355179A, “Radioactive nuclide labeled propiophenone compounds” (Burroughs Wellcome Co., priority 1980, dated 1982)

Key:
[1] = test system: anti-compound 2 sera, anti-compound 3 sera; assay: RIA of bupropion using 125I-labeled competitors with anti-compound 2 sera and anti-compound 3 sera; type: binding; conditions: with anti-compound 2 or anti-compound 3 sera
Procedure: (§1) Samples of six standard solutions of bupropion in blank plasma having concentrations of 0.39 to 50 ng/ml) are pipetted (0.1 ml each) in duplicate into 12×75 mm plastic tubes. Duplicate non-specific binding (no antibody) and maximum binding tubes (no unlabeled bupropion) receive 0.1 ml blank plasma. Spiked plasma controls at several concentrations of (e.g., 1.0, 10.0, and 100 ng/ml) and plasma samples for assay (diluted into the standard range with blank plasma if necessary) are assayed in duplicate. After being placed in an ice bath, all tubes receive (in order) 0.2 ml ^3 H bupropion (416 pg. containing approximately 10^4 cpm) and 0.7 ml anti-bupropion serum (raised to a ring-functionalized immunogen according to the present invention) (at pre-determined dilutions such that approximately 40% of the ^3 H bupropion added is bound), both in assay buffer (0.05 M phosphate-bufferedisotonic saline, containing 0.01 M EDTA and 0.1% gelatin, pH 7.0). Non-specific binding tubes receive 0.7 ml assay buffer.) Following incubation either at 25° C. for 2 hours or overnight at 4° C., bound and free ^3 H bupropion are separated by incubation for 10 min at 0° C. with 0.5 ml ice-cold dextran-coated charcoal solution (0.25% dextran, 5 mg/ml charcoal, in assay buffer) followed by centrifugation for 10 minutes at 4° C. […] The supernatants, containing antibody-bound ^3 H bupropion are carefully decanted into liquid scintillation cocktail for quantitation of ^3 H. After counts (minus average non-specific binding cpm) are expressed as percentages of average maximum binding cpm, bupropion concentrations in plasma samples and spiked controls are read from a standard curve (log concentration vs percent average maximum binding).
RIA's have been run according to the method of Example X utilizing ^125 I labeled bupropion competitors of the present invention in conjunction with antisera obtained following immunization with immunogens of the present invention. […] Following the ethanol precipitation of antibody-bound ^125 I-bupropion competitor at equilibrium, ^125 I in the protein pellets was quantified.

anti-compound 1 sera = assay: RIA of bupropion using 125I-labeled competitor with anti-compound 1 sera; type: binding; conditions: compound 6 with anti-compound 1 sera, compared with the other RIA's
Procedure: as §1, with “7.0).” for “7.0). Non-specific binding tubes receive 0.7 ml assay buffer.) Following incubation either at 25° C. for 2 hours or overnight at 4° C., bound and free ^3 H bupropion are separated by incubation for 10 min at 0° C. with 0.5 ml ice-cold dextran-coated charcoal solution (0.25% dextran, 5 mg/ml charcoal, in assay buffer) followed by centrifugation for 10 minutes at 4° C.”, “binding). […]” for “binding).”

[2] = test system: antisera raised by a bupropion variant-carrier material conjugate; assay: Competition with radiolabeled bupropion or radiolabeled competitor for binding to antisera; conditions: against radiolabeled bupropion or radiolabeled competitor

Structure (SMILES)	RIA sensitivity relative to the compound 10 (3H bupropion) assay system [1]	other results
CC(NC(C)(C)C)C(=O)c1ccc(OCC(=O)NCCc2ccc(O)c([125I])c2)c(Cl)c1 (stereo not drawn) [Compound 7, α-t-Butylamino-3-chloro-4-carbomethoxypropiophenone-^125 I-tyramine amide]	approximately equal	
CC(NC(C)(C)C)C(=NOCC(=O)NCCc1ccc(O)c([125I])c1)c1cccc(Cl)c1 (stereo not drawn) [Compound 6, α-t-Butylamino-3-chloropropiophenone-carboxymethyloxime-^125 I-tyramine amide]		RIA sensitivity (anti-compound 1 sera): least sensitive
CC(NC(C)(C)C)C(=O)c1ccc(CCCOC(=O)CCC(=O)NCCc2ccc(O)c([125I])c2)c(Cl)c1 (stereo not drawn) [Compound 8, α-t-butylamino-3-chloro-4-γ-hydroxypropylpropiophenonehemisuccinate-^125 I-tyramine amide]	approximately equal	
CC(NC(C)(C)C)C(=O)c1ccc(O)c([125I])c1 (stereo not drawn) [Compound 9, ^125 I-α-t-Butylamino-3-iodo-4-hydroxypropiophenone]	approximately ten times more sensitive	
CC(NC(C)(C)C)C(=O)c1cccc(Cl)c1 (racemic) [bupropion, (±)-2-tert-butylamino-3'-chloropropiophenone]		competition for binding to antisera [2]: successfully compete
